Results from US20210023223A1, “HYDROCARBON / LIPID - CAROTENOID COMPLEXES” (IP SCIENCE LIMITED, priority 2018, published 2021).

What was measured:
[1] = Size of pork fat globules, microscopy; type: physicochemical; details: maximum doses
Description: (§1) For measurement of lipid droplets and fat globules and quantification of their size binocular microscope Olympus BX41 was used with Cell^B software for morphometric analysis. All parameters were collected from 10 randomly selected microscopic fields at ×1000).
When carotenoids were added to animal fat, with a relatively high percentage of saturated fatty acid, a similar trend in increased fat globules was observed, although to a lesser degree. The maximum doses of lycopene or astaxanthin caused a similar increase in the pork fat globules diameter, only 50%, FIG. 2 and table 3.

[2] = test system: middle-aged volunteers, facial skin; assay: Lycopene trial, facial skin surface material; type: in vivo, human; details: 7 mg formulated lycopene daily, 4 weeks
Description: Group II—15 middle-aged (7 males and 8 females, 48-65 years old) for lycopene intervention and
Group II—participants received 7 mg formulated lycopene,
Daily dose of each carotenoid product was taken in one capsule with the main evening meal for 4 weeks (from day 1 to day 28 of the study).
For RSSC sample collection all participants of the study were requested to avoid facial hygienic manipulations for 24 hours before material collection, which was carried out in the morning. These samples were collected only before initiation of astaxanthin supplementation (day 0) and at the end of the study (day 29). RSSC sample collection and preparation was performed according to previously described procedures. Briefly, RSSC samples were collected using polyester swabs from the surface of the facial skin (the sides of the nose). During the procedure two samples were taken (one swab per side). Each collected sample was placed on the surface of a microscope slide. A second microscope slide was pressed against the surface of the first one. […] All slides with collected samples (i.e. four slides per study participant per time point) were coded to provide sample anonymity for blinded analysis. All collected samples were sent to the laboratory of Lycotec Ltd for further processing and eventual microscopic examination.
For morphological analysis of RSSC samples one slide of the first pair was stained with hematoxylin and eosin in order to identify any cells or cell remnants. The second slide was stained using Oil Red O (Lipid Stain, ab150678, Abcam, Cambridge, UK) for lipid visualization and lipid droplet size evaluation. One slide from the other pair was stained with crystal violet solution (Gram staining) to assess the level of microorganism presence. The remaining slides were kept unstained for possible future use.
The analysis of typical structural elements of the RSSC comprised lipid droplet measurements, counting characteristic lipid crystals and desquamated corneocytes, and evaluation of bacterial presence as previously described. The indicated micro objects/structures were quantified using Cell^B imaging software (Digital Imaging Solutions, Olympus, Japan). All microscopic samples were blinded before their examinations.
Smears collected from the surface of the facial skin were fixed with methanol. Permeabilised corneocytes and sebum present in the material were stained for direct immunofluorescence using fluorescein isothiocyanate-conjugated monoclonal antibody against lycopene recently generated by our group. Fluorescent staining was visualised using Nikon Eclipse 50i microscope with fluorescence attachment. The semi-quantitative analysis was based on visually assessing fluorescence levels in corneocytes and surrounding sebum in 20 random fields of view at ×200 magnification. Fluorescence intensity in the samples was classified using the following scoring system: 0—no fluorescence; 0.5—traces of fluorescence; 1—weak fluorescence; 2—moderate fluorescence; 3—strong fluorescence of some cells or areas of sebum background; 4—extremely strong fluorescence (confluent fluorescent elements within corneocytes). Fluorescence assessment in each sample was repeated blindly three times.

[3] = Melting time at 37° C.; type: physicochemical
Description: (§2) Approximately 20 mg of butter, or pork fat, or beef fat, or cocoa butter, or chocolate, with or without certain concentrations of carotenoids, were placed on the surface of the laboratory slides and incubated at 37° C. in a laboratory incubator (TLK39).
Results presented in FIG. 15 show three different carotenoids—lycopene, lutein and astaxanthin, can reduce, albeit to a different degree, the melting time of dark chocolate regardless of its tempering protocols: Protocol I—28° C., Protocol II—29° C., Protocol III—30° C.

[4] = Melting time at 37° C.; type: physicochemical; remark: listed apart in the source
Description: as §2

[5] = Heating olive oil-in-water emulsions; type: physicochemical
[6] = test system: moderately obese volunteers; assay: Inflammatory Oxidative Damage (IOD) of serum; type: in vivo, human
Description: Study Design. The total number of volunteers recruited to take part in the study was 18 (9 male and 9 female subjects) Caucasians 40-67 years old.
Products Formulated with Lycopene was developed and made by Lycotec Ltd. (Cambridge, United Kingdom). The daily dose was 1 capsule of 20 mg of lycopene, and it was taken with the main meal of the day. The period of administration was 1 month.
Serum samples were incubated overnight in 0.05 M PBS acetate buffer (pH 5.6) to imitate the type of oxidative damage, which occurs during the release of lysosomes following neutrophil degranulation. The following morning the reaction was stopped using trichloroacetic acid. The concentration of the end products such as malonic dialdehyde (MDA), and other possible thiobarbituric acid reactive substances (TBARS), was then measured by colorimetry using reagents and kits from Cayman Chemical (MC, USA).

[7] = Defrosting time of frozen oil; type: physicochemical
Description: To determined defrosting time, frozen oil aliquots of 200 μI were incubated at ambient temperature of 20±2 C° until they were completely melted. Period of time, which was required for the tested sample to be melted, was measured with a laboratory timer (QUANTUM).

[8] = Size of Olive oil lipid droplets, microscopy; type: physicochemical; set-up: Olive oil lipid droplets, Droplet square: unit not given here
Description: as §1
When lycopene was added to olive oil, rich with monounsaturated fatty acids, it increased the size of its lipid droplets in a dose-dependent manner, and table 4.

[9] = lycopene dose 0.1 per 30 g of Olive oil
[10] = lycopene dose 0.5 per 30 g of Olive oil
[11] = lycopene dose 1.0 per 30 g of Olive oil
[12] = lycopene dose 2.0 per 30 g of Olive oil
[13] = lycopene dose 3.5 per 30 g of Olive oil
[14] = lycopene dose 7.0 per 30 g of Olive oil
[15] = lycopene dose 10.0 per 30 g of Olive oil

Increase in the pork fat globules diameter [1]: 50%
Melting time of dark chocolate [3]: 8 min
Reduction of melting time of cocoa butter ([4]; 0.3 mg per 1 g): more than 8 fold
Reduction of melting time of white chocolate ([4]; 0.3 mg per 1 g of the chocolate): under 3 fold
Melting time of white chocolate ([4]; 0.3 mg per 1 g of the chocolate, control 11 minutes): 4 min
Melting time of cocoa butter ([4]; 0.3 mg per 1 g, control 16.5 minutes): 2 min
Rate of heating of olive oil emulsion in water in the first 3 minutes ([5]; 50%:50%, 1 molecule lycopene to 67,000 or astaxanthin to 71,000 fatty acids, control 10° C.): 18 °C
Maximum temperature the emulsion could reach ([5]; water to olive oil 75%:25%, control 62° C.): 100 °C
Reduction of thawing time of Canola/Rapeseed oil ([7]; 0.3 mg per 1 ml of the oil): over 2 fold
Reduction of thawing time of Olive oil ([7]; 0.3 mg per 1 ml of the oil): 10 fold
Thawing time of Canola/Rapeseed oil ([7]; 0.3 mg per 1 ml of the oil, control 85 seconds): 40 s
Thawing time of Cod Liver oil ([7]; 0.3 mg per 1 ml of the oil, control 120): 55 s
Thawing time of frozen Olive oil ([7]; 0.3 mg per 1 ml of the oil, controls 60 (lycopene) and 48 seconds (astaxanthin)): 6 s
Reduction of thawing time of Sunflower oil ([7]; 0.3 mg per 1 ml the oil): 17 fold
Olive oil lipid droplets, Droplet square [8, 9]: 27.2
Size of Olive oil lipid droplets, Mean [8, 9]: 46.24 μm
Olive oil lipid droplets, Droplet square [8, 10]: 36.36
Size of Olive oil lipid droplets, Mean [8, 10]: 40.00 μm
Olive oil lipid droplets, Droplet square [8, 11]: 10.29
Size of Olive oil lipid droplets, Mean [8, 11]: 185.13 μm
Olive oil lipid droplets, Droplet square [8, 12]: 17.39
Size of Olive oil lipid droplets, Mean [8, 12]: 260.80 μm
Olive oil lipid droplets, Droplet square [8, 13]: 24.05
Size of Olive oil lipid droplets, Mean [8, 13]: 457.00 μm
Olive oil lipid droplets, Droplet square [8, 14]: 61.31
Size of Olive oil lipid droplets, Mean [8, 14]: 490.50 μm
Olive oil lipid droplets, Droplet square [8, 15]: 36.77
Size of Olive oil lipid droplets, Mean [8, 15]: 367.70 μm
Increase in lipid droplet diameter, could reach ([8]; olive oil): 20 fold
SMILES: CC(C)=CCC/C(C)=C/C=C/C(C)=C/C=C/C(C)=C/C=C/C=C(C)/C=C/C=C(C)/C=C/C=C(\C)CCC=C(C)C [Lycopene]
Bacterial load on the surface of the skin [2]: significant reduction of the bacterial load
Lycopene presence in desquamated corneocytes [2]: significantly increased for the whole period of supplementation
Lycopene presence in sebum [2]: lycopene amount growth only during the first two weeks of supplementation
Rate of desquamation of corneocytes [2]: noticeably lower
Sebum production [2]: significant increase of the sebum production
IOD ([6]; after 20 mg lycopene daily for one month): 60 ± 5.8 μM MDA
IOD ([6]; before, n = 18): 107 ± 11.6 μM MDA
